From patent US12492337B2, “Fluorescent probe, preparation method therefor and use thereof” (FLUORESCENCE DIAGNOSIS (SHANGHAI) BIOTECH COMPANY, priority 2017, dated 2025) come the findings set out here.

The nature of series [1]: Quantum yield of free probe not reacted with protein tag. Format: physicochemical. On the procedure:
(§1) A probe was mixed with a corresponding HaloTag protein tag to obtain a mixed sample. The final concentration of the probe in the mixed sample was 5 μM and the final concentration of the protein tag was 10 μM. The mixed sample was incubated at 37° C. for 1 hour, and the sample was detected using a fluorescence spectrophotometer.

Series [2] is described as follows: Viscosity responsiveness: fluorescence intensity in glycerol versus methanol. The note with it: fluorescence intensity in glycerol to that in methanol. Format: physicochemical. On the procedure: The above-mentioned viscosity-responsive fluorescent dye means that the fluorescence intensity of the dye responds to the viscosity of the solution. As the viscosity of the solution increases, the fluorescence intensity increases. Optionally, the viscosity-responsive fluorescent dye is an organic dye molecule which, under the same concentration and excitation wavelength, at 25° C. has a ratio • of the maximum fluorescence emission intensity of the dye in glycerol to the fluorescence intensity in methanol of greater than 2, optionally greater than 5, optionally greater than 10. The concentration of the viscosity-responsive dye ranges from 1×10^−7 M to 1×10^−5 M.

In series [3] the test system is HaloTag protein tag. As to the kind of experiment: Probe mixed with HaloTag protein tag, fluorescence spectrophotometer (Example 86). The series is classed as biochemical. The note with it: 5 μM probe, 10 μM protein tag, 37° C., 1 hour; for Fluorescence enhancement: fluorescence activation multiple after binding protein tag; for Emission/nm: fluorescence emission wavelength. As for the experimental part: as §1

Series [4] has as its system Hela cells stably expressing HaloTag protein tags. In words: Confocal imaging of labeled Hela cells stably expressing HaloTag protein tags (Example 89). Format: cell-based. The note with it: Homo sapiens, 5 μM probe, 2 hours, 37° C., confocal microscope, read-out: fluorescence signal enhancement in Hela cells expressing the protein tag. As for the experimental part: (§2) Hela cells are used as an example to test the labeling effect of compounds in mammalian cells. Hela cells and Hela-WT cells (Hela primitive cell, without a protein tag expressed) stably expressing HaloTag protein tags were planted in 14 mm 96-well glass bottom cell culture plates and stabilized for 10 hours. Probe 57, probe 59, probe 60, probe 61, probe 69, probe 75, probe 76, probe 82 were added to the culture medium and diluted to 5 μM, respectively. The cells were incubated in a 37° C. carbon dioxide incubator for 2 hours, and the fluorescence changes of the labeled cells were detected by imaging with a Leica TPS-8 confocal microscope.

The subject of series [5] is Hela-WT cells. In words: Confocal imaging of Hela-WT cells without protein tag (Example 89). Format: cell-based. The note with it: 5 μM probe, 2 hours, 37° C., confocal microscope. On the procedure: as §2
Series [6] relates to HaloTag protein tags in different subcellular organelles of Hela cells. As to the kind of experiment: Labeling HaloTag protein tags in different subcellular organelles of Hela cells (Example 90). The series is classed as cell-based. Conditions: 0.2 μM probe, 2 hours, no washing; cytoskeleton, mitochondria, nucleus, Golgi, whole cells, lysosomes. On the procedure:
In order to verify that probe 57, probe 59, probe 60, probe 61, probe 62, and probe 63 can be used to label target proteins located in different organelles. Hela cells were used as examples to detect the effect of probes on labeling HaloTag protein tags in different subcellular organelles. Hela cells were implanted 5000 cells per well in 96-well glass-bottom cell culture plates. After 14 hours, lipo2000 kit was used to transfect the plasmids localized by HaloTag protein tags in different organelles. The original culture medium was removed 24 hours after transfection, and the cells were washed twice with a phenol red-free DMEM medium, and incubated for 2 hours in a phenol red-free medium containing 0.2 μM probes, and the effect of cell labelling was detected by imaging using a Leica TCS-8 confocal microscope.

Regarding `CN(C)c1cc2c(s1)-c1sc(/C=C(\C#N)C(=O)NCCOCCOCCCCCCCl)cc1C2(C)C` [Probe 76], the “The quantum yield of the free probe” value in series [1] is recorded as 0.0011. Further, in series [2], the ratio is on record as 386. In addition, in series [3], the “The quantum yield after binding to Halo-tag” value is on record as 0.58, the Fluorescence enhancement came out at 666 and the Emission/nm was found to be 640 nm. Further, the fold induction at 5 µM in series [4] is around 200. In series [5], the “fluorescent signal in Hela-WT cells” value is “no corresponding fluorescent signal could be detected”.

With `CN(C)c1cc2c(s1)-c1sc(/C=C(\C#N)C(=S)NCCOCCOCCCCCCCl)cc1C2(C)C` [Probe 82], the “The quantum yield of the free probe” value in series [1] is recorded as below 0.001. In addition, the ratio in series [2] turned out to be 475. Also, in series [3], the “The quantum yield after binding to Halo-tag” value is 0.51, the Fluorescence enhancement worked out at 781 and the Emission/nm is 660 nm. In addition, the fold induction at 5 µM in series [4] is around 200. Also, the “fluorescent signal in Hela-WT cells” value in series [5] is “no corresponding fluorescent signal could be detected”.

As to `CN(C)c1ccc2cc(/C=C(\C#N)C(=O)NCCOCCOCCCCCCCl)sc2c1` [Probe 63], the “The quantum yield of the free probe” value in series [1] is 0.0015. In addition, the “effect of cell labelling of subcellular organelles” value in series [6] is given as “clearly display a variety of subcellular organelle structures without washing”. Besides, the ratio in series [2] amounted to 531. In series [3], the “The quantum yield after binding to Halo-tag” value worked out at 0.70, the Fluorescence enhancement is 486 and the Emission/nm amounted to 570 nm.

For `CN(C)c1cc2sc3cc(/C=C(\C#N)C(=O)NCCOCCOCCCCCCCl)sc3c2s1` [Probe 75], the “The quantum yield of the free probe” value in series [1] stood at 0.0021. The ratio in series [2] was 500. In addition, in series [3], the “The quantum yield after binding to Halo-tag” value came to 0.56, the Fluorescence enhancement stood at 589 and the Emission/nm stood at 620 nm. For the same compound, in series [4], the fold induction at 5 µM is around 200. For the same compound, the “fluorescent signal in Hela-WT cells” value in series [5] is reported as “no corresponding fluorescent signal could be detected”.

On to `CC1=CC(C)(C)N(CCOC(=O)NCCOCCOCCCCCCCl)c2ccc(/C=C(\C#N)C(=O)O)cc21` [Probe 47], for which, in series [1], the “The quantum yield of the free probe” value is given as below 0.001. In addition, in series [2], the ratio is on record as 235. Further, in series [3], the “The quantum yield after binding to Halo-tag” value turned out to be 0.45, the Fluorescence enhancement stood at 358 and the Emission/nm came out at 523 nm.

As to `CN(C)c1ccc2nc(/C=C(\C#N)C(=O)OCCOCCOCCCCCCCl)sc2c1` [Probe 72], in series [1], the “The quantum yield of the free probe” value came out at 0.001. In series [2], the ratio is reported as 268. Moreover, in series [3], the “The quantum yield after binding to Halo-tag” value was 0.47, the Fluorescence enhancement is 486 and the Emission/nm is given as 640 nm.

With `CN(CCOC(=O)NCCOCCOCCCCCCCl)c1cc2sc(/C=C(\C#N)c3nc4ccccc4o3)cc2s1` [Probe 11], the “The quantum yield of the free probe” value in series [1] came to 0.0013. For the same compound, the ratio in series [2] stood at 422. Moreover, in series [3], the “The quantum yield after binding to Halo-tag” value is 0.46, the Fluorescence enhancement was 520 and the Emission/nm turned out to be 590 nm.

For the compound `CN1C(=O)/C(=C\c2cc3c(s2)-c2sc(N(C)CCOC(=O)NCCOCCOCCCCCCCl)cc2[Si]3(C)C)SC1=S` [Probe 56], the “The quantum yield of the free probe” value in series [1] was below 0.001. For the same compound, the ratio in series [2] is listed as 436. Also, in series [3], the “The quantum yield after binding to Halo-tag” value is given as 0.47, the Fluorescence enhancement is listed as 989 and the Emission/nm was 725 nm.

Regarding `CN(CCOC(=O)NCCOCCOCCCCCCCl)c1cc2sc3cc(/C=C(\C#N)c4nc5ccccc5o4)sc3c2s1` [Probe 30], the “The quantum yield of the free probe” value in series [1] is on record as below 0.001. Besides, the ratio in series [2] is recorded as 1125. In series [3], the “The quantum yield after binding to Halo-tag” value was 0.60, the Fluorescence enhancement came out at 535 and the Emission/nm came to 620 nm.

Regarding `CC(C)(C)OC(=O)/C(C#N)=C/c1ccc(N(CCOC(=O)NCCCS(=O)(=O)[O-])CCOC(=O)NCCOCCOCCCCCCCl)cc1.[Na+]` [Probe5], the “The quantum yield of the free probe” value in series [1] is on record as below 0.001. For the same compound, the ratio in series [2] is 790. Moreover, in series [3], the “The quantum yield after binding to Halo-tag” value is given as 0.46, the Fluorescence enhancement is listed as 1174 and the Emission/nm is 480 nm.

Take `CN(C)c1ccc2cc(/C=C(\C#N)C(=O)NCCOCCCl)sc2c1` [Probe 68]: in series [1], the “The quantum yield of the free probe” value is given as below 0.001. Besides, the ratio in series [2] is 381. Further, in series [3], the “The quantum yield after binding to Halo-tag” value amounted to 0.50, the Fluorescence enhancement came out at 681 and the Emission/nm was found to be 580 nm.

As for `CN(CCOC(=O)NCCOCCOCCCCCCCl)c1ccc2cc(/C=C(\C#N)c3nc4ccccc4o3)sc2c1` [Probe 14], the “The quantum yield of the free probe” value in series [1] is listed as below 0.001. For the same compound, the ratio in series [2] came out at 560. In addition, in series [3], the “The quantum yield after binding to Halo-tag” value is listed as 0.52, the Fluorescence enhancement came to 771 and the Emission/nm amounted to 610 nm.

On to `CN(CCOC(=O)NCCOCCOCCCCCCCl)c1ccc2c(c1)C(C)(C)c1cc(/C=C(/C#N)C(=O)OC(C)(C)C)ccc1-2` [Probe 51], for which, in series [1], the “The quantum yield of the free probe” value was below 0.001. Also, the ratio in series [2] amounted to 359. Further, in series [3], the “The quantum yield after binding to Halo-tag” value was determined as 0.48, the Fluorescence enhancement is on record as 392 and the Emission/nm was determined as 625 nm.

For `CC1=CC(C)(C)N(CCOC(=O)NCCOCCOCCCCCCCl)c2ccc(/C=C(\C#N)C(=O)OC(C)(C)C)cc21` [Probe 46], the “The quantum yield of the free probe” value in series [1] was below 0.001. For the same compound, the ratio in series [2] is on record as 682. Moreover, in series [3], the “The quantum yield after binding to Halo-tag” value was determined as 0.58, the Fluorescence enhancement is 563 and the Emission/nm was determined as 520 nm.

Take `CN(CCOC(=O)NCCOCCOCCCCCCCl)c1ccc2nc(/C=C(\C#N)C(=O)OC(C)(C)C)oc2c1` [Probe 19]: the “The quantum yield of the free probe” value in series [1] was found to be 0.0012. In addition, the ratio in series [2] is on record as 299. Also, in series [3], the “The quantum yield after binding to Halo-tag” value is recorded as 0.53, the Fluorescence enhancement is recorded as 561 and the Emission/nm came to 625 nm.

On to `CN(C)c1ccc2nc(/C=C(\C#N)C(=O)NCCOCCOCCCCCCCl)oc2c1` [Probe 69], for which the “The quantum yield of the free probe” value in series [1] is below 0.001. Moreover, in series [2], the ratio is 317. In series [3], the “The quantum yield after binding to Halo-tag” value is listed as 0.47, the Fluorescence enhancement turned out to be 491 and the Emission/nm is listed as 610 nm. In addition, the fold induction at 5 µM in series [4] is around 200. In series [5], the “fluorescent signal in Hela-WT cells” value is “no corresponding fluorescent signal could be detected”.

Consider `CN(CCOC(=O)NCCOCCOCCCCCCCl)c1cc2c(s1)-c1sc(/C=C(\C#N)C(=O)OC(C)(C)C)cc1[Si]2(C)C` [Probe 38], for which, in series [1], the “The quantum yield of the free probe” value is reported as 0.0011. In addition, in series [2], the ratio turned out to be 1011. For the same compound, in series [3], the “The quantum yield after binding to Halo-tag” value worked out at 0.56, the Fluorescence enhancement came to 503 and the Emission/nm turned out to be 650 nm.

Take `CN(CCOC(=O)NCCOCCOCCCCCCCl)c1ccc(/C=C(\C#N)C(=O)O)cc1` [Probe 9]: the “The quantum yield of the free probe” value in series [1] is below 0.001. In addition, the ratio in series [2] turned out to be 851. For the same compound, in series [3], the “The quantum yield after binding to Halo-tag” value came to 0.50, the Fluorescence enhancement is 745 and the Emission/nm is recorded as 480 nm.

For the compound `CN(CCOC(=O)NCCOCCOCCCCCCCl)c1ccc(-c2ccc(/C=C(\C#N)c3nc4ccccc4o3)s2)s1` [Probe 42], the “The quantum yield of the free probe” value in series [1] is 0.0013. Besides, the ratio in series [2] was 178. Moreover, in series [3], the “The quantum yield after binding to Halo-tag” value is on record as 0.39, the Fluorescence enhancement worked out at 375 and the Emission/nm was determined as 702 nm.

As for `CN(CCOC(=O)NCCOCCOCCCCCCCl)c1ccc(-c2ccc(/C=C(\C#N)C(=O)OC(C)(C)C)s2)s1` [Probe 40], in series [1], the “The quantum yield of the free probe” value was 0.001. In series [2], the ratio turned out to be 759. Also, in series [3], the “The quantum yield after binding to Halo-tag” value is 0.47, the Fluorescence enhancement is listed as 421 and the Emission/nm came out at 657 nm.
